Measured values published in ChEMBL document CHEMBL1158265, “Isoprenyl phenyl ethers from liverworts of the genus Trichocolea: cytotoxic activity, structural corrections, and synthesis” (J Nat Prod, 1996).

Columns and labels:
[1] = Cytotoxicity against african green monkey BSC1 cells at 60 ug/disk; assay type: cell-based; conditions: chlorocebus aethiops, bsc-1
[2] = tested on: Trichophyton mentagrophytes; experiment: Antifungal activity against Trichophyton mentagrophytes at 60 ug/disk; assay type: functional; conditions: read-out: IZ
Candida albicans = experiment: Antifungal activity against Candida albicans at 60 ug/disk; assay type: functional; conditions: read-out: IZ

Structure (SMILES) | Activity [1] | zone of inhibition at 60 µg/disc [2] | zone of inhibition at 60 µg/disc (Candida albicans)
COC(=O)c1ccc(O)c(OC)c1 [METHYL VANILLATE] | 25% | 0 mm | 0 mm
COC(=O)c1ccc(OCC=C(C)C)c(OC)c1 | 50% | 2 mm | 1 mm
